Measurements reported in paper PMC4026528 (PLoS ONE, 2014).

Tests used:
[1] = system: Wnt transcriptional activity in HT-1080 cells; assay: TCF Wnt reporter assay in HT-1080; type: cell-based, human; settings: HT-1080, data not shown
Text: The generation of TCF-Luciferase and TA-Renilla reporter plasmids as well as IC50 determination and calculation was reported previously. Human AXIN1 and WNT3A cDNAs were purchased from Origene as “transfection ready” plasmids. Dominant negative TCF4 cDNA was purchased from Upstate. Luciferase reporter of the nucleolin promoter (pNucL14) and FLAG-c-Myc expressing vector were from B. Amati. Luciferase reporter of the Hes5 promoter and Notch1-IC expressing vector were from I. Screpanti. Lentiviral vectors for inducible dominant negative TCF4 (rLV-EF1-tTS, rLV-EF1-rtTA and rLV-TRE-CMV-HA-TCF4DN) were purchased from Vectalys.
Transfections were carried out using Lipofectamine 2000 (Invitrogen) according to the manufacturer’s instructions. Lentiviral expression of TCF-Luc, TA-Renilla, and the inducible dominant negative TCF4, were carried out following Vectalys instructions. For reporter assays, luciferase activities were performed as described previously.

[2] = system: Axin1/P-β-catenin co-localization in U2OS cells; assay: Axin1-GFP / P-β-catenin co-localization (confocal) in U2OS; type: cell-based, human; settings: Wnt3a-CM, 10 µmol/L overnight
[3] = system: Wnt target gene mRNA in U2OS cells; assay: Quantitative RT-PCR of Wnt target genes in U2OS; type: cell-based, human
Experimental: (§1) RNA extraction and quantitative RT-PCR (qPCR) expression analysis was performed as described previously. Gene expression analysis was performed using the human housekeeping gene RPL13A. Primers for the hAXIN2, hCDC25A, hc-MYC, hFZD4, hDVL2, hCSNK1G and hVEGF-A were the following: Fw: 5′-CAAGGGCCAGGTCACCAA-3′ Rv: 5′-CCCCCAACCCATCTTCGT-3′; Fw: 5′-[…]-3′ Rv: 5′-[…]-3′; Fw: 5′-GGCTCCTGGCAAAAGGTCA-3′ Rv: 5′-[…]-3′; Fw: 5′-[…]-3′ Rv: 5′-[…]-3′; Fw: 5′-[…]-3′ Rv: 5′-GTCTCCCCGCTCATTGCTC-3′; Fw: 5′-[…]-3′ Rv: 5′-[…]-3′; Fw: 5′-[…]-3′ Rv: 5′-[…]-3′.

[4] = system: Wnt target gene mRNA in HT-1080 cells; assay: Quantitative RT-PCR of Wnt target genes in HT-1080; type: cell-based, human; settings: HT-1080, overnight, 10 µmol/L
Experimental: as §1

[5] = system: Axin1, TNKS1/2, c-Myc protein in U2OS cells
Experimental: Total, nuclear and cytosolic cells lysates were prepared as described previously. Commercial antibodies used in this study include anti-Axin1, anti-β-catenin, anti-P-β−catenin Ser33/Ser37/Thr41 and anti-HA from Cell Signaling Technologies, anti-p21 (Santa Cruz), anti-tankyrases (Abcam), anti-Tubulin and anti-c-Myc from Calbiochem, anti-GAPDH and anti-β-actin (Sigma). For co-localization experiments, U2OS cells were plated directly on coverslips coated with Fibronectin (Invitrogen). After transfections and incubation treatment of 24 h, cells were washed once with 1X PBS and then fixed with 4% paraformaldehyde for 15 min. After three washes in PBS, cells were permeabilized with 0.1% Triton X-100 for 10 min and washed three times with TBS (Bio-Rad). […] After 24 h, cells were washed three times with TBS and incubated for 1 h with the following secondary antibody Alexa Fluor 546-conjugated goat anti-rabbit IgG (Invitrogen, 1∶1000). Finally, coverslips were mounted onto glass slides using Prolong Gold Antifade reagent with DAPI (Invitrogen). Cells were examined under laser confocal fluorescence microscope with plan-apochromate 40x and 63x/1.4 oil-immersion objective (LSM 510 Meta, Axiovert 200, Zeiss). Co-localization experiments were performed in triplicate, and data/images presented are the average of at least 10 random fields for each independent experiment.

[6] = system: Axin1 and β-catenin in G292 osteosarcoma cells; assay: Western blotting in G292; type: cell-based, human
U2OS cells = assay: Scratch assay (motility), U2OS; type: cell-based, human; settings: 20 hours
Experimental: (§2) Soft agar assay and analysis was carried out as previously described. For scratch assay, confluent monolayer of U2OS and HT-1080 cells were subjected to scratch using a sterile pipette tip. Wounded monolayers were washed to remove debris and incubated with SEN461 at different concentrations for 20 hours. After the incubation period, images were taken under an Axiovert 200M (Zeiss) microscope equipped with a CCD camera, and the gap width was measured using MetaMorph 6.3 software (Universal Imaging Corp.) to calculate the area covered by cells (pixels unit). The tube formation assay was performed using growth factor-reduced Matrigel from BD (BD Biosciences; San Jose, CA, USA). Matrigel was thawed overnight at 4°C and was diluted (1∶1) with phenol red-free DMEM without serum. 100 µl of the diluted matrigel was used to coat the wells of a 96 well plate and was allowed to polymerize for 2 hours at 37°C. After equilibrating the gel with the complete growth medium, 15×10^3 cells were seeded in each well and incubated for 20 hours. The tube formation was monitored under a phase contrast microscope (Axiovert 200, Zeiss) and imaged using MetaMorph system (Universal Imaging Corp).

HT-1080 cells = assay: Tube formation assay, HT-1080; type: cell-based, human; settings: HT-1080, 24 hours exposure, vs DMSO
Experimental: as §2, with “After equilibrating the gel with the complete growth medium, 15×10^3 cells were seeded in each well and incubated for 20 hours.” left out

## COCC(=O)N1CCN(C(=O)C2CCC(Cn3c(=O)c4cc(OC)ccc4n(C)c3=O)CC2)CC1 (centres unmarked) [SEN461]
[1]
  Wnt transcriptional modulation (TCF reporter): did not find any Wnt transcriptional modulation
[2]
  phosphorylated β-catenin associated with Axin1 (co-localization): increase in the amount of phosphorylated β-catenin associated with Axin1
[3]; 10 µmol/L
  CSNK1G mRNA: down-modulation
  DVL2 mRNA: down-modulation
  FZD4 mRNA: down-modulation
[3]; 10 µmol/L, 2 or 24 h
  AXIN2 mRNA: comparable down-regulation
  CDC25A mRNA: comparable down-regulation
[3]; Wnt3a CM stimulation
  AXIN2 mRNA induced by Wnt3a CM: inhibited
[3]; overnight treatment
  c-MYC mRNA: unaffected
[4]
  c-MYC mRNA: significant down-modulation
[5]; only at the highest concentration
  tankyrases (TNKS1 and TNKS2) protein level: very slight stabilization
[5]; overnight
  c-Myc protein level: No effect
[5]; overnight, cytoplasmic lysates
  Axin1 protein level: concentration-dependent stabilization
[6]
  Axin protein level: Axin stabilization
  β-catenin level: β-catenin down-modulation
U2OS cells
  cellular motility (two-dimensional scratch assay): neither U2OS nor HT-1080 cells showed inhibition of motility
HT-1080 cells
  tubule-formation activity: did not produce any change
